Values quoted from earlier work as cited in PMC3725996 (Bioorganic & medicinal chemistry letters, 2010).

How the values were obtained:
[1] = system: extracellular DA in rat nucleus accumbens; conditions: following acute or repeated nicotine administration, ref [16]
[2] = system: nicotine self-administration; conditions: rats; ref [17]

For `Cc1ccc[n+](CCCCCCCCCCCC[n+]2cccc(C)c2)c1.[Br-].[Br-]` [bPiDDB 1, N,N′-dodecane-1,12-diyl-bis-3-picolinium dibromide], the “Effect on increase in extracellular DA in nucleus accumbens” value [1] is given as “dose-dependently reduced the increase in extracellular DA”, the Oral bioavailability (oral route, ref Albayati et al., unpublished data) is given as “limited bioavailability when given by the oral route” and the Brain bioavailability (subcutaneous delivery, 14C-bPiDDB, ref [19]–[20]) is given as “brain-bioavailable after subcutaneous delivery”. The “Effect on nicotine self-administration” value [2] was “dose-dependently decreased nicotine self-administration” and the “Effect on sucrose-maintained responding” value [2] was “but not sucrose-maintained responding”.
